Measured values as given in patent US20240190872A1, “FABI INHIBITORS FOR GRAM-NEGATIVE PATHOGENS” (THE BOARD OF TRUSTEES OF THE UNIVERSITY OF ILLINOIS, priority 2021, published 2024).
≈ marks a conversion by molar mass, not a printed value.

What was measured:
[1] = in vivo; conditions: female, C57BL/6, mouse, in vivo
Experimental: Mouse MTD of Debio-1452-NH3. The protocol was approved by the IACUC at the University of Illinois at Urbana-Champaign (Protocol Number:16144). In these studies, 10- to 12-week-old female C57BL/6 mice purchased from Charles River were used. The maximum tolerate dose (MTD) of single compound was determined first. Debio-1452 amine analogues were formulated in 20% sulfobutyl ether β-cyclodextrin in sterile water. Debio-1452-NH3 (1), and compounds 2 and 3 were given by IP injection and mice were monitored for signs of toxicity for 2 weeks (single dose). For multiple dose, the compound was given by daily IP for 5 consecutive days and mice were monitored for signs of toxicity for 1 month. MTD was the highest dosage with acceptable toxicity (e.g. <20% weight loss). Single dose MTDs were initially determined. […] The MTD of Debio-1452-NH3 (1) was used to inform the dosing schedule used in subsequent efficacy studies.

[2] = Hepatocyte stability; type: in vitro ADME
[3] = system: 100 A. baumannii clinical isolates; assay: MIC90 against 100 A. baumannii clinical isolates; type: cell-based; conditions: Acinetobacter baumannii
Experimental: Antimicrobial susceptibility tests. Susceptibility testing was performed in biological triplicate, using the micro-dilution broth method as outlined by the Clinical and Laboratory Standards Institute. Bacteria were cultured with cation-adjusted Muller-Hinton broth (Sigma-Aldrich, Cat# 90922) in round-bottom 96-well plates (Corning, Cat# 3788). Human serum (pooled gender, 0.2 μm filtered) was purchased from BioIVT (Hicksville, NY).

[4] = system: H. sapiens HFF-1; assay: In-vitro cytotoxicity; type: cell-based
[5] = Plasma protein binding
[6] = Plasma stability
[7] = system: K. pneumoniae BAA 2472; assay: microbe, parasite or virus in culture; type: cell-based; conditions: Klebsiella pneumoniae, BAA2472, read-out: MIC K. pneumoniae BAA 2472, clinical isolate
Procedure, shortened: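 MICs by CLSI broth microdilution in cation-adjusted Mueller-Hinton broth, performed in biological triplicate. Strains: efflux-deficient E. coli ΔtolC (JW5503, KEIO collection) and K. pneumoniae BAA-2472 (ATCC).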

[8] = female, BALB/c, mouse, in vivo, 100 mg/kg
[9] = in vitro; conditions: human, plasma
[10] = system: A. baumannii AR-88; assay: Neutropenic mouse thigh infection; type: in vivo, female BALB/c mice
Experimental: FIG. 7. […] A) Neutropenic mouse thigh infection model initiated in female BALB/c mice with A. baumannii AR-88 (1.36×10^5 CFU per mouse intramuscular, left thigh) were treated with vehicle (5 mice) or fabimycin (10 mice) four times a day (75 mg/kg intravenously) and bacterial burden evaluated at 26 h post-infection. B) Neutropenic mouse thigh infection initiated in CD-1 mice with S. aureus USA300 LAC (2.3×10^6 CFU per mouse intramuscular in thigh) were treated with vehicle (8 mice) or FabI inhibitor (8 mice per group) 2 and 7 h post-infection (5 mg/kg retro-orbital IV), and the bacterial burden was evaluated 24 h post-infection.
(§1) With formulation, MTD, and pharmacokinetic data in hand, the efficacy of fabimycin was evaluated in murine infection models. To start, a comparative assessment was made of fabimycin and Debio-1452-NH3 in two murine neutropenic infection models using a dosing regimen that is at the MTD for Debio-1452-NH3 but below the MTD for fabimycin (three doses, intramuscular, at 50 mg/kg).
(§2) Chart 1. Summary of Fabimycin in vivo models.

[11] = system: A. baumannii AR-299; assay: Neutropenic mouse thigh infection; type: in vivo, CD-1 mice; conditions: 50 mg/kg, intramuscular (2, 6, and 11 h post-infection), 26 h
Experimental: as §1, §2

Cc1c(CN(C)C(=O)/C=C/c2cnc3c(c2)CC[C@H](N)C(=O)N3)oc2ccccc12 [(S)-11, (S,E)-3-(7-amino-8-oxo-6,7,8,9-tetrahydro-5H-pyrido[2,3-b]azepin-3-yl)-N-methyl-N-((3-methylbenzofuran-2-yl)methyl)acrylamide]
MTD at 5 d [1]: 200 mg/kg | Hepatocyte stability, Rat [2]: 0.9 μL/min/million cells | MIC90 [3]: 8 µg/mL (≈ 19.8 µM) | inhibition at 30 µM [4]: 9.5 ± 3.4% | IC50 ([4]; cytotoxicity): 112 ± 11 µM | Plasma protein binding, Human ([5]; Human): 94% | fraction unbound ([5]; human, plasma): 0.06 | stability in human plasma (in words) [6]: excellent stability | MIC [7]: 4 µg/mL (≈ 9.89 µM) | time concentrations stayed above the MIC for the infectious strain [8]: over 7 hours | half-life [9]: 23.3 h | log reduction relative to the vehicle ([10]; 75 mg/kg IV, QID, 26 h): 1.75 log | reduction of bacterial burden ([10]; NDM-1 containing A. baumannii, neutropenic thigh): ~2 log(CFU/thigh) | log reduction relative to the vehicle [11]: 2.3 log
